In patent publication US20050038058A1, “Novel compounds and methods for therapy” (Institute of Organic Chemistry and Biochemistry, priority 2001, published 2005):
≈ marks a conversion by molar mass, not a printed value. Read-outs that look alike come from different tables or passages of the source.

Legend:
[1] = system: HIV-1(IIIB); assay: HIV-1(IIIB)-induced cytopathicity in CEM cell cultures; type: cell-based
Procedure, shortened: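 Protection against cytopathicity caused by HIV-1 strain IIIB was measured in CEM cell cultures. The IIIB stock came from supernatants of infected MT-4 cell cultures, and virus was added to the cultures at 100 CCID50. At day 4 to 5 post infection, virus-induced giant cell formation was examined microscopically, and the EC50 was derived from this.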

[2] = system: HIV-2(ROD); assay: HIV-2(ROD)-induced cytopathicity in CEM cell cultures; type: cell-based; settings: Human immunodeficiency virus 2, CCRF-CEM, read-out: EC50 HIV-2 (ROD) (CEM)
From the text: (§1) Viruses. The origins of MSV, HIV type 1 (HIV-1) (strain IIIB and Ba-L), HIV-2 (strain ROD) and FIV (strain Petaluma) have been described previously (Balzarini et al., AIDS 5: 21-28, 1991; De Clercq et al., Proc. Soc. Exp. Biol. Med. 137:590-594, 1971; Egberink et al., Proc. Natl. Acad. Sci. 87:3087-3091, 1990; Hartmann et al., Antiviral Chem. Chemother. 5:13-19, 1994; Popovic et al., Science 224:497-500, 1984). HIV-1(IIIB) and HIV-2(ROD) stocks were obtained from supernatants of virus-infected MT-4 cell cultures. HIV-1BaL was expanded in human primary M/M, whose supernatants were collected, filtered and stored at −80° C. before use. Characteristics of viral stocks used for this study were 2.1×10^8 HIV-RNA genomes/ml (corresponding to 35 ng of p24 antigen) and 5,000 tissue culture infectious doses 50% per ml (TCID50/ml) as assessed by virus titration in other primary M/M cultures. The isolation and characterization of the clinical HIV-1 isolates L1S, L6S and L6S/PMEA has been reported (Thormar et al., Proc. Natl. Acad. Sci. USA 93:3283-3287, 1995; Van Laethem et al., AIDS 15:553-561, 2001). […] HIV-1/L6S/PMEA is the clinical isolate HIV-1/L6S that has been isolated after culturing the virus for 11 passages in the presence of increasing concentrations of PMEA (adefovir).
(§2) In vitro antiviral assays. The activity against HIV-1- and HIV-2-induced cytopathicity was examined in MT-4 cell cultures at day 5 post infection and based on the determination of cell viability by trypan blue dye staining or in CEM cell cultures at day 4 to 5 post infection and based on the microscopical examination of virus-induced giant cell formation. HIV-1 and HIV-2 were added at 100 CCID50 to the cell cultures.

[3] = system: HIV-1(IIIB); assay: HIV-1(IIIB)-induced cytopathicity in MT-4 cell cultures; type: cell-based; settings: Human immunodeficiency virus 1, IIIB, MT4; Table 2
From the text: as §1, §2

[4] = system: MSV; assay: MSV-induced transformation of murine embryo fibroblast C3H/3T3 cell cultures; type: cell-based; settings: Mus musculus; MSV-induced C3H cell transformation; Table 2; read-out: EC50 MSV (C3H)
Procedure: The inhibitory effect of the test compounds on MSV-induced transformation of murine embryo fibroblast C3H/3T3 cell cultures was examined microscopically at day 6 post infection. MSV was added at 75 focus-forming units to the cell cultures. The detailed procedures for the antiretroviral evaluations has been described in detail before (Balzarini et al., AIDS 5:21-28, 1991; Balzarini et al., Antimicrob. Agents Chemother. 37:332-338, 1993; De Clercq et al., Proc. Soc. Exp. Biol. Med. 137:590-594, 1971).

[5] = Inhibition of CEM cell growth (cytostatic activity); type: cell-based; settings: human, CEM cells
Procedure, shortened: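 MT-4 cells (5×10^4/well) exposed to compound dilutions for 5 days at 37 °C; CC50 = concentration cutting living cells by 50%, counted microscopically with trypan blue exclusion. CEM cytostatic CC50 defined likewise, by a previously described method.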

[6] = Toxicity in CrFK cells; type: cell-based, feline; settings: cat, CrFK cells; Table 2
[7] = Alteration of C3H cell morphology (minimal inhibitory concentration); type: cell-based, murine; settings: mouse, C3H/3T3 embryo fibroblast cells; microscopically visible alteration of cell morphology; > means no visible toxicity at the indicated concentration; read-out: CC50 C3H (minimal inhibitory concentration)
[8] = system: C3H cells; assay: as above; type: cell-based, murine; settings: Table 2, footnote c
[9] = system: MSV; type: in vivo; settings: for Number of Mice not Developing a Tumor (percent): intraperitoneal, 5 daily doses, newborn NMRI mice
[10] = system: HIV-1/L1S; type: cell-based; settings: measured against the laboratory HIV-1/IIIB strain in CEM cell cultures
From the text: as §1, §2

[11] = system: HIV-1/L6S/PMEA; type: cell-based; settings: measured against the laboratory HIV-1/IIIB strain in CEM cell cultures
From the text: as §1, §2

[12] = system: HIV-1/L6S; type: cell-based; settings: measured against the laboratory HIV-1/IIIB strain in CEM cell cultures
From the text: as §1, §2

[13] = system: HIV-1(IIIB) strains containing L100I, K103N, Y181C and Y188H mutations in the RT; assay: HIV-1(IIIB) strains with NNRTI-specific RT mutations in CEM cell cultures; type: cell-based; settings: data not shown
Procedure: as §2

Nc1cc(SCCOCP(=O)(O)O)nc(N)n1 [Compound 2, 2,4-diamino-6-{[2-(phosphonomethoxy)ethyl]-sulfanyl}pyrimidine]
EC50 ([1]; Human immunodeficiency virus 1, CCRF-CEM, HIV-1 (IIIB) in CEM, no addition, Table 3, read-out: EC50 as such): 1.9 ± 0.75 µg/mL (≈ 6.78 µM)
EC50 ([1]; Human immunodeficiency virus 1, CCRF-CEM, HIV-1 (IIIB) in CEM, Ade 100 μM, read-out: EC50 upon addition of Ade (100 μM)): 3.3 ± 3.2 µg/mL (≈ 11.8 µM)
EC50 ([1]; Human immunodeficiency virus 1, CCRF-CEM, HIV-1 (IIIB) in CEM, Ado 400 μM, read-out: EC50 upon addition of Ado (400 μM)): 4.4 ± 2.8 µg/mL (≈ 15.7 µM)
EC50 ([1]; Human immunodeficiency virus 1, CCRF-CEM, HIV-1 (IIIB) in CEM, Guo 10 μM, read-out: EC50 upon addition of Guo (10 μM)): 1.9 ± 0.49 µg/mL (≈ 6.78 µM)
EC50 ([1]; Human immunodeficiency virus 1, CCRF-CEM, HIV-1 (IIIB) in CEM, dCyd 1 mM, read-out: EC50 upon addition of dCyd (1 mM)): 2.1 ± 1.7 µg/mL (≈ 7.49 µM)
EC50 ([1]; Human immunodeficiency virus 1, CCRF-CEM, HIV-1 (IIIB) in CEM, dThd 10 μM, read-out: EC50 upon addition of dThd (10 μM)): 1.4 ± 0.21 µg/mL (≈ 5 µM)
EC50 ([1]; Human immunodeficiency virus 1, CCRF-CEM, HIV-1(IIIB)-induced cytopathicity in CEM cell cultures, Table 1, read-out: EC50 HIV-1 (CEM)): 5.5 µg/mL (≈ 19.6 µM)
EC50 ([1]; Human immunodeficiency virus 1, IIIB, CCRF-CEM, giant cell formation, mean ±SD of 2 to 4 experiments, Table 2, read-out: EC50 HIV-1 (IIIB) (CEM)): 4.6 ± 3.1 µg/mL (≈ 16.4 µM)
EC50 [2]: 3 ± 1.4 µg/mL (≈ 10.7 µM)
EC50 [3]: 2.5 ± 0.3 µg/mL (≈ 8.92 µM)
EC50 [4]: 1.7 ± 0.9 µg/mL (≈ 6.07 µM)
CC50 ([5]; 50% cytostatic concentration, CEM cell proliferation, Table 1, read-out: CC50 (CEM)): 64 µg/mL (≈ 228 µM)
CC50 ([5]; inhibition of cell proliferation, Table 2, read-out: CC50 CEM): 64 ± 9.8 µg/mL (≈ 228 µM)
CC50 ([5]; read-out: CC50 for CEM cells): ~60 µg/mL (≈ 214 µM)
CC50 [6]: 42 µg/mL (≈ 150 µM)
Minimal concentration causing visible cell morphology alteration [7]: > 40 µg/mL
Compound concentration at which morphological toxicity was observed, C3H (value between parentheses) [8]: 200 μg/ml
Number of Long-Term Survivors (%) (>30 days) ([9]; 2 mg/kg): 0%
Number of Mice not Developing a Tumor (percent) ([9]; 2 mg/kg): 0%
Number of Long-Term Survivors (%) (>30 days) ([9]; 8 mg/kg): 20%
Number of Mice not Developing a Tumor (percent) ([9]; 8 mg/kg): 0%
Number of Mice not Developing a Tumor (percent) ([9]; 20 mg/kg): 0%
Number of Long-Term Survivors (%) (>30 days) ([9]; 20 mg/kg, premature death not taken into account): 20%
Number of Mice not Developing a Tumor (percent) ([9]; 50 mg/kg): 0%
Number of Long-Term Survivors (%) (>30 days) ([9]; 50 mg/kg, premature death not taken into account): 20%
Prevention of tumor formation, in words ([9]; all doses tested): unable to prevent tumor formation
Long-term survivors ([9]; dose of 8-50 mg/kg): 20%
Delay of MSV-induced tumor formation, in words ([9]; mouse, in vivo): only showed a pronounced delay in tumor formation at a dose of 50 mg/kg
-Fold Resistance HIV-1/L1S [10]: 2.1 fold
-Fold Resistance HIV-1/L6S/PMEA [11]: 14 fold
-Fold Resistance HIV-1/L6S [12]: 1.4 fold
Activity against NNRTI-specific mutant virus strains, in words [13]: retained full activity
